Data on 2 compounds can be found in US20240199624A1, “COMPOUNDS, COMPOSITIONS, AND METHODS” (CHDI Foundation, Inc., priority 2022, published 2024).

Common to all, as to assay type: biochemical
The target in experiment [1] is T1, human MutSα (Homo sapiens, UniProt P43246+P52701).
T1 construct: Msh2(1-934), Gene ID NP_000242.1; Msh6(1-1360), Gene ID NP_001393725.1
Briefly: ADP Glo assay with MutSα (2.1). The conditions noted are these: 15 nM MutSα/DNA, 30 μM ATP. The method, then:
(§1) ADP Glo assay 2.1: Enzyme human MutSbeta (Msh2(1-934), Gene ID NP_000242.1, Msh3(1-1137), Gene ID J04810.1) with 22 bp biotin-labeled DNA containing a GT-mismatch (purchased from Curia Global, TOP 5′-[…]-3′; BOT 3′-AGTAGCTAGGC - - - CGAAGTCTACC-5′-Biotin) was pre-incubated in assay buffer (25 mM HEPES pH=7.5, 150 mM KCl, 5 mM MgCl2, 5 mM GSH, 0.1% Pluronic F-127, 0.2% Ovalbumin) to allow formation of the enzyme-DNA complex. Plates with spotted compounds in serial dilutions in DMSO (80 nL) were filled with ATP (2 μL, 10 μM final concentration) followed by an incubation of 30 min at RT. Then, enzyme was added (2 μL, 7 nM final concentration) and the reaction was allowed to proceed for 60 min at 37° C. After the ATPase reaction, the commercially available “ADP-Glo Reagent” was added (incubate 40 min at RT) to deplete remaining ATP via the activity of […]. Subsequently, the commercially available “Kinase Detection Reagent” converted ADP to ATP via the activity of PEP and Pyruvate kinase. The ATP was then converted into light by Ultra-Glo Luciferase. The obtained luminescence was proportional to the ADP concentration generated during the initial ATPase reaction. The luminescence signal was measured with an Envision reader, raw data were analyzed towards controls (full reaction=0% inhibition; no reaction in absence of enzyme=100% inhibition) and IC50 curves were analyzed with the inhouse software Aplus.
ADP Glo assay with MutSα (2.1): The ADP Glo assay version 2.1 with the enzyme human MutSα (Msh2(1-934), Gene ID NP_000242.1, Msh6(1-1360), Gene ID NP_001393725.1) was based on the same principle and protocol steps as the MutSβ assay. A 22 bp biotin-labeled DNA containing a GT-mismatch (purchased from Curia Global, TOP 5′-[…]-3′; BOT 3′-AGTAGCTAGGC - - - CGAAGTCTACC-5′-Biotin) was used for binding to MutSα. For this assay, concentrations of enzyme and ATP were optimized to 15 nM MutSα/DNA and 30 μM ATP.

The target in experiment [2] is T2, human MutSbeta (Homo sapiens, UniProt P20585+P43246).
T2 construct: Msh2(1-934), Gene ID NP_000242.1; Msh3(1-1137), Gene ID J04810.1
Briefly: P33 SPA. The conditions noted are these: ATP added to compounds first, then enzyme with DNA; 2 μM ATP, 7 nM enzyme, 60 min 37° C. The method, then: P33 SPA: Enzyme human MutSbeta (Msh2(1-934), Gene ID NP_000242.1, Msh3(1-1137), Gene ID J04810.1) and 22 bp biotin-labeled DNA containing a GT-mismatch (purchased from Curia Global, TOP 5′-[…]-3′; BOT 3′-AGTAGCTAGGC - - - CGAAGTCTACC-5′-Biotin) were pre-incubated at equimolar concentration for 15 min at room temperature (“RT”) in assay buffer (25 mM HEPES pH=7.5, 150 mM KCl, 2 mM MgCl2, 2 mM GSH, 0.01% Tween-20). ATP (10 μL, 2× final concentration of γ-[^33P]-ATP (final 0.1 nM; Hartmann Analytic, FF-301) and cold ATP (final 2 μM)) was added to compounds (400 nL spotted as concentration response in 100% DMSO into wells of an OptiPlate) and pre-incubated for 30 min at RT. Then, enzyme with DNA was added (10 μL, 2× final concentration of 7 nM) and incubated for 60 min at 37° C. in a total volume of 20 μL per well. Decay of [^33P] with a half-life of 25.4 days was corrected by increasing the concentration of the labelled nucleotide with the appropriate factor; all steps with radioactive ATP were conducted behind appropriate shielding. Then, 20 μL of a 1:2 mix of ammonium molybdate (20 mg/mL Ammonium molybdate in 2.4 M HCl) and SPA beads (ProteinA SPA beads from Perkin Elmer Cat #RPNQ0019 at 7.5 mg/mL+1% azide) was added per well and incubated at RT for 2 min. Then, 40 μL of 7 M CsCl and 0.1 M citrate was added per well and incubated for 20 h at RT before measuring on the MicroBeta (top read mode, 1 min per well). For full plate processing, all reagents were transferred with a pipettor (Selma, CyBio) apart from the final reagent (CsCl+citrate) which was added with a dispenser (MultiFlo, BioTek). Data analysis during assay development was done with Prism GraphPad.

Experiment [3] addresses T2, human MutSbeta. Briefly: ADP Glo assay 2.1. Conditions: 10 μM ATP, 7 nM enzyme; buffer with 5 mM GSH, 0.2% Ovalbumin. As for the experimental part:
as §1

In experiment [4] the target is T2, human MutSbeta. Description: ADP Glo assay 1.1. Conditions: SPA buffer, no Ovalbumin; enzyme added to compounds before ATP; read-out: ADP Gol 1.1 assay IC50. As for the experimental part: as §1
ADP Glo assay 1.1: The ADP Glo 2.1 assay was adapted to enable assessment of a more direct interaction of the compound with the enzyme: (1) the SPA buffer was applied (25 mM HEPES pH=7.5, 150 mM KCl, 2 mM MgCl2, 2 mM GSH, 0.01% Tween-20) which contained no decoy Ovalbumin protein. (2) The order of reagent addition was changed, and enzyme was now added directly to the spotted compounds before addition of ATP.

T2 sequence (P43246 whole entry): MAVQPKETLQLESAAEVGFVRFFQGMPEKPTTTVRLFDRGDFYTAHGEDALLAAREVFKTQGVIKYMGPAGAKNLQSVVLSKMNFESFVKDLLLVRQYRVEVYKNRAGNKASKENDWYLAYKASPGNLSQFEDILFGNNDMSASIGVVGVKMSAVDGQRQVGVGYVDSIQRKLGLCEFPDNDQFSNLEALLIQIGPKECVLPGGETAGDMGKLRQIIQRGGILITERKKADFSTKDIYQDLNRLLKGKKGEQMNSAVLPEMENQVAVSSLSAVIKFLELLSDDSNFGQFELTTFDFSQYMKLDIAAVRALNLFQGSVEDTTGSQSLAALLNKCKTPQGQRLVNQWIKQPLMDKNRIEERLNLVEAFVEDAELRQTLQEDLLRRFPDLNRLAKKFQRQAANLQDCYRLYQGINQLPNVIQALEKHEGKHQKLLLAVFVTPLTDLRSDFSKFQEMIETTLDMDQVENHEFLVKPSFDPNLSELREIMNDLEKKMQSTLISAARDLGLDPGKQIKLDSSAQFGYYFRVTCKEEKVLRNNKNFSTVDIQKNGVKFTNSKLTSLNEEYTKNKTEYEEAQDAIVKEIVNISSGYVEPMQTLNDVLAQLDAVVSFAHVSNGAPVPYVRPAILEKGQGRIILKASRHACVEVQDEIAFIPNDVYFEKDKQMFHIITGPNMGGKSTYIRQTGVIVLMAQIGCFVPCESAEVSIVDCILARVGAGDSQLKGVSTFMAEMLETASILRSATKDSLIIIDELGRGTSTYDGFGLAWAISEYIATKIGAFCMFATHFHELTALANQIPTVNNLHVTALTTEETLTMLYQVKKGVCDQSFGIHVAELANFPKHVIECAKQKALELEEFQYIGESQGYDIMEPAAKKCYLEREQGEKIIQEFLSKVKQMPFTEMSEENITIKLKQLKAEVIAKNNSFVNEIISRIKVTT
T2 sequence (P20585 whole entry): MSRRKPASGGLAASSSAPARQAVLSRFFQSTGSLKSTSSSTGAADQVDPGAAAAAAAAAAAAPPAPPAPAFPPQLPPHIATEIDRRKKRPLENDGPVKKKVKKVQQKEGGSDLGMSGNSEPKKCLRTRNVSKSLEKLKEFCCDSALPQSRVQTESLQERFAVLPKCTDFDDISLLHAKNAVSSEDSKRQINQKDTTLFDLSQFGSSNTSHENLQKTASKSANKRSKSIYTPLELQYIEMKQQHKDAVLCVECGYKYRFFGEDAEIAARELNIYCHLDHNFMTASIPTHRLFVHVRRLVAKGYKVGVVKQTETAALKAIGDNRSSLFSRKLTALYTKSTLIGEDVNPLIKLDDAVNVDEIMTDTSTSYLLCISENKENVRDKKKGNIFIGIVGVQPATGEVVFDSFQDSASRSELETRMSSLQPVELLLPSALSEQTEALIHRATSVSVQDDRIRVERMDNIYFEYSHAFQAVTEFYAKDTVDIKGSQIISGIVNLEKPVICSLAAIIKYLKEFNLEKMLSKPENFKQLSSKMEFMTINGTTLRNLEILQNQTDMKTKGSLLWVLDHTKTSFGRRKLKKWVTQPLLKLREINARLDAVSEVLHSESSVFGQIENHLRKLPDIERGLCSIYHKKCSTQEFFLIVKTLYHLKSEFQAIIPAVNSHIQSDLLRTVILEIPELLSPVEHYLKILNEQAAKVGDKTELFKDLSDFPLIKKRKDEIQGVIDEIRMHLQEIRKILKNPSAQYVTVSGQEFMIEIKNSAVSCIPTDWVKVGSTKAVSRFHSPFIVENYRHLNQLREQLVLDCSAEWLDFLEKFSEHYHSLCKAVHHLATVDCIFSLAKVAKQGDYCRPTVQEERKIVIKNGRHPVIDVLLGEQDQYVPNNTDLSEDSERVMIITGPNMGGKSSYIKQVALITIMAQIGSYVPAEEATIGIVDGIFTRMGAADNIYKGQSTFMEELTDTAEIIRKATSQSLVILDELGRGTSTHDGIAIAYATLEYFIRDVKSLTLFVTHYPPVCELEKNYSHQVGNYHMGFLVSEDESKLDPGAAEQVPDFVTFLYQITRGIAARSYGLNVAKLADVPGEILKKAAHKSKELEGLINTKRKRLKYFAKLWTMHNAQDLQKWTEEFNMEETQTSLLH
T1 sequence (P43246 whole entry): as the sequence (P43246 whole entry) above
T1 sequence (P52701 whole entry): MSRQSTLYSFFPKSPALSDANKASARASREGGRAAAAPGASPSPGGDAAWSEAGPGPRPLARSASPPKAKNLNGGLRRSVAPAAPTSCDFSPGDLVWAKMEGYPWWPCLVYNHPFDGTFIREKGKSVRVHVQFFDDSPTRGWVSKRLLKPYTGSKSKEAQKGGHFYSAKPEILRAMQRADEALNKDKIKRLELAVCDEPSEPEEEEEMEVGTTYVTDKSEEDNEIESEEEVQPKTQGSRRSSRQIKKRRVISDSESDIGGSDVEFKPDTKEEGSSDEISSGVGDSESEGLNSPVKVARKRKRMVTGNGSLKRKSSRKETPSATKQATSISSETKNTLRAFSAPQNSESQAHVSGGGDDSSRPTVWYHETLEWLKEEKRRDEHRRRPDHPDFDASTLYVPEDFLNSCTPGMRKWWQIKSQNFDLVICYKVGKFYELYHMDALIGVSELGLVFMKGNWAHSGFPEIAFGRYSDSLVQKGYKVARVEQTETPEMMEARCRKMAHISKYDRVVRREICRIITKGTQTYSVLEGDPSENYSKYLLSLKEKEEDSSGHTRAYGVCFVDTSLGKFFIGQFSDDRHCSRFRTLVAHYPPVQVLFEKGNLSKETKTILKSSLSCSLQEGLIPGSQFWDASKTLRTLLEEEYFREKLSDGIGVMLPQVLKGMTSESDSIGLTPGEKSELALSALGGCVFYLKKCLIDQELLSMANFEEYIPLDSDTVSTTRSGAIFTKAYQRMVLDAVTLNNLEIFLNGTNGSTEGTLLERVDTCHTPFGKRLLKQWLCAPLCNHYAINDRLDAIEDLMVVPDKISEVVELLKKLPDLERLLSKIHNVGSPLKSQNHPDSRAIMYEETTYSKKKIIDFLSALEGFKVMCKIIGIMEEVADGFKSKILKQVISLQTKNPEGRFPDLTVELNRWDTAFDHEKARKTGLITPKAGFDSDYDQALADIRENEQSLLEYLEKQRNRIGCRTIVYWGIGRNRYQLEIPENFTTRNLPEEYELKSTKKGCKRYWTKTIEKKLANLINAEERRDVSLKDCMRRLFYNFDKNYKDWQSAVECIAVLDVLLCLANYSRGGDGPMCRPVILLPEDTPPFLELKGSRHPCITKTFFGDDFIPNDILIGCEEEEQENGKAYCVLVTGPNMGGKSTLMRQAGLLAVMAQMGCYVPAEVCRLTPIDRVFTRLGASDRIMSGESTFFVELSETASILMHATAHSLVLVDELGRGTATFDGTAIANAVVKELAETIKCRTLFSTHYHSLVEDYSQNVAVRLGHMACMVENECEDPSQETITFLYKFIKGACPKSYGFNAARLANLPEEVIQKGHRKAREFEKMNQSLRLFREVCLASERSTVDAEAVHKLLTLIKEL

With `Cc1ccc(Nc2nc(N3CCN(C)CC3)nc3nccnc23)cc1C` [Compound 2, N-(3,4-dimethylphenyl)-2-(4-methylpiperazin-1-yl)pteridin-4-amine], the IC50 in experiment [1] was determined as 135 µM; in experiment [2], 28.6 µM; in experiment [3] it was 67.3 µM; in experiment [4], 54.8 µM.
In the same order, the values of `CCN1CCN(c2nc(Nc3ccc(Cl)cc3)c3nccnc3n2)CC1` [Compound 4, N-(4-Chlorophenyl)-2-(4-ethylpiperazin-1-yl)pteridin-4-amine] are 121 µM, 23.8 µM, 152 µM and 64.3 µM.
